Measurements reported in patent publication US20250235429A1, “TREATMENT OF DISEASES VIA ADMINISTRATION OF BUNTANETAP AND AN ANTIDIABETIC AGENT” (ANNOVIS BIO, INC., priority 2024, published 2025).

How the values were obtained:
[1] = in vivo; cited from earlier work
APP/PS1 transgenic mice [2] = test: 2-day radial arm water maze (RAWM), spatial memory; type: in vivo
Description: (§1) Animals: Heterozygous double transgenic mice expressing both human APP (K670N:M671L) and human PS1 (M146L) (line 6.2) and their wild-type non-transgenic littermates, both males and females, were used for these experiments. They were obtained by a breeding colony maintained at the animal facility of Columbia University. They were genotyped through PCR on tail samples. Animals were injected i.p. from the age of […] for 1 month prior to starting behavioral assessment which lasted for 2 weeks during which treatment continued. Behavioral assessment examined spatial and associative memory. Finally, mice were sacrificed for electrophysiological assessment of synaptic function.
(§2) Mice were coded to blind investigators with respect to genotype and treatment. Results were expressed with Standard Error of the Mean (SEM). Level of significance was set for p<0.05. Results were analyzed by ANOVA analysis with post-hoc correction with the combination or genotype as main effect. Experiments were designed in a balanced fashion, and mice were trained and tested at each of the different conditions in 3 or 4 separate experiments.
Mice were i.p. injected with the drug from the age of 8 weeks prior to plaque appearance until behavioral assessment that started at 12 weeks of age and lasted for 2 weeks.
Spatial memory was studied with the 2-day radial arm water maze (RAWM) test. The task is a hybrid of the Morris Water Maze (MWM) and the radial arm land maze. The motivation for the animals is immersion in water. The mouse needs to swim in 6 alleys (arms) radiating from a central area until it finds a hidden (submerged) platform at the end of one of the arms, based on visual cues placed in the room. In the old RAWM version of the task, the goal arm varies from day to day, requiring 21 days of training in wild-type mice to reach the learning criterion. In the new version of the task, the goal arm is kept constant for all trials, with a different start arm on successive trials, such that the learning criterion will be reached in 2 days. The first day of the protocol was a training day. Mice were trained to identify the platform location by alternating between a visible and a hidden platform in a goal arm. The final 3 trials on day 1 and all 15 trials on day 2 used a hidden escape platform to force mice to use spatial cues to identify the location of the goal arm. To avoid learning limitations imposed by exhausting practice and to avoid fatigue that may result from consecutive trials, spaced practice training was established by running the mice in cohorts of 4 and alternating different cohorts through the 15 training trials over 3 hours testing periods each day. On day 1, a visible platform was laced in a goal location. Mouse 1 of cohort 1 was gently placed in the pool near the perimeter of the wall of the first start arm (specified on a score sheet) and facing the center of the pool. The number of incorrect arm entries (entries in arms with no platform) was counted. If the animal enters the incorrect arm it was gently pulled back to the start arm. Each trial lasted up to 1 min. Failure to select an arm after 15 sec was counted as an error and the mouse was returned to the start arm. After 1 min, if the platform had not been located, the mouse was guided gently through the water by placing a hand behind it to direct it towards the platform. The mouse rested on the platform for 15 sec. After completing the trial, the mouse was removed from the pool, gently towel dried and placed back into its cage under a heat lamp. The goal platform location was different for each mouse. […] After each mouse from cohort 1 completed six alternating trials between visible and hidden platforms, the mice were left to rest under a heating source, and mice from the second cohort were tested in the same way.

[3] = system: hippocampal slices APP/PS1 transgenic mice; test: Electrophysiological study: long-term potentiation (LTP) in hippocampal slices; type: in vivo
Description: as §1, §2
Mice were i.p. injected with the drug from the age of 8 weeks prior to plaque appearance until euthanasia for collecting slices at the age of 14-16 weeks. The treatment with Buntanetap was daily, whereas the treatment with dulaglutide was twice a week.
Electrophysiological analysis was performed on 400 μm hippocampal slices, cut with a tissue chopper and maintained in an interface chamber at 29° C. for 90 min prior to recording. Briefly, CA1 fEPSPs were recorded by placing both the stimulating and the recording electrodes in CA1 stratum radiatum. Basal synaptic transmission was assayed, either by plotting the stimulus voltages against slopes of fEPSP, or by plotting the peak amplitude of the fiber volley against the slope of the fEPSP. For LTP experiments, a 15 min baseline was recorded every min at an intensity that evokes a response ˜35% of the maximum evoked response. LTP was induced using θ-burst stimulation (4 pulses at 100 Hz, with the bursts repeated at 5 Hz and each tetanus including 3 ten-burst trains separated by 15 see). Data was subjected to statistical analyses to determine the effects of combination on inhibiting synaptic dysfunction.

APP/PS1 transgenic mice [4] = test: Contextual fear conditioning (FC), associative memory; type: in vivo; details: Buntanetap 1 mg/Kg and/or dulaglutide 0.1 mg/Kg
Description: as §1
Mice were coded to blind investigators with respect to genotype and treatment. Results were expressed with Standard Error of the Mean (SEM). […] Results were analyzed by ANOVA analysis with post-hoc correction with the combination or genotype as main effect. […]
The combination effect on associative memory was assessed through fear conditioning (FC). […] Freezing behavior, defined as the absence of movements except for that needed for breathing, was scored using Noldus software. Contextual fear learning, a type of memory for which hippocampal function is indispensable, was evaluated 24 hrs after training by measuring freezing responses for 5 min in the same chamber where the mice have been trained. […]

[5] = APP/PS1 mice, Buntanetap 1 mg/Kg and/or dulaglutide 0.1 mg/Kg

| Substance | onset [1] | peak concentration occurs after administration [1] [h] | % Improvement (RAWM errors) (APP/PS1 transgenic mice [2]; APP/PS1, dulaglutide 0.1 mg/kg) [%] | Meran Number of Errors (RAWM) (APP/PS1 transgenic mice [2]; APP/PS1, dulaglutide 0.1 mg/kg) | % Improvement (RAWM errors) (APP/PS1 transgenic mice [2]; APP/PS1, dulaglutide 0.3 mg/kg) [%] | Meran Number of Errors (RAWM) (APP/PS1 transgenic mice [2]; APP/PS1, dulaglutide 0.3 mg/kg) | % Improvement (RAWM errors) (APP/PS1 transgenic mice [2]; APP/PS1, dulaglutide 0.6 mg/kg) [%] | Meran Number of Errors (RAWM) (APP/PS1 transgenic mice [2]; APP/PS1, dulaglutide 0.6 mg/kg) | impairment of short-term spatial memory measured through the 2-day radial arm water maze (RAWM) (APP/PS1 transgenic mice [2]; [5]) | % Improvement (Residual Potential) ([3]; APP/PS1, dulaglutide 0.1 mg/kg) [%] | Residual Potential (mean) ([3]; APP/PS1, dulaglutide 0.1 mg/kg i.p. twice a week) | % Improvement (Residual Potential) ([3]; APP/PS1, dulaglutide 0.3 mg/kg) [%] | Residual Potential (mean) ([3]; APP/PS1, dulaglutide 0.3 mg/kg i.p. twice a week) | % Improvement (Residual Potential) ([3]; APP/PS1, dulaglutide 0.6 mg/kg) [%] | Residual Potential (mean) ([3]; APP/PS1, dulaglutide 0.6 mg/kg i.p. twice a week) | impairment of synaptic plasticity measured through Long-term potentiation (LTP) [3, 5] | impairment of associative memory measured through contextual fear conditioning (FC) (APP/PS1 transgenic mice [4]) |
| --- | --- | --- | --- | --- | --- | --- | --- | --- | --- | --- | --- | --- | --- | --- | --- | --- | --- |
| Insulin detemir | about 1 hours | 3 to 14 | – | – | – | – | – | – | – | – | – | – | – | – | – | – | – |
| dulaglutide: GLP-1 agonist, commercially available as Trulicity® | – | – | 23.5 | 2.9 | 47.1 | 2.5 | 88.2 | 1.8 | did not ameliorate | 21.4 | 155.52 | 32.3 | 164.68 | 71.1 | 197.26 | did not ameliorate | did not ameliorate |
| Insulin glulisine: insulin commercially available as Apidra® | 5 to 15 min | – | – | – | – | – | – | – | – | – | – | – | – | – | – | – | – |
